Reference: paper PMC10572428, “Possibility of Using Different Calcium Compounds for the Manufacture of Fresh Acid Rennet Cheese from Goat’s Milk” (Foods, 2023)
Read-outs that look alike come from different tables or passages of the source. Values belong to the molecule of their own block, whether it stands above or below them.

Tests used:
[1] = Texture profile analysis (TPA) of cheese; type: physicochemical, goat
Method: (§1) Fresh acid rennet cheese was produced following the methodology by Pawlos et al. (Scheme 1). The caprine milk was divided into batches, each containing 2000 g of milk, heated to 25 °C, and treated with varying amounts and dosages of calcium compound. The control sample (0 mg Ca per 100 g of milk) and milk with calcium addition (5, 10, 15, 20 mg Ca per 100 g of milk) were pasteurized in a water bath at 90 °C for 15 s. Subsequently, the milk was cooled to 28 °C, and each batch was inoculated with 0.20% (w/w) of starter culture for 15 min before adding 0.02% (v/w) of rennet. The mixture was stirred and incubated at 28 °C until the pH reached 4.60 (±0.50) in a Cooled Incubator ILW 115 (POL-EKO Aparatura, Wodzisław Śląski, Poland). Acid rennet curds were then cut into 15 × 15 × 15 mm cubes and heated in a water bath at 35 °C for 1.5 h. Following this, the temperature was increased to 40 °C for 0.5 h. The whey was separated using cheesecloth, and the curds were transferred to molds, pressed (10 N kg^−1, 0.5 h) using a pneumatic cylinder press (Pneumatig, Gdynia, Poland), and refrigerated in labeled individual plastic containers at 4 °C for 24 h prior to analysis. All physicochemical analyses were conducted on ground cheese samples.
The texture profile analysis test (TPA) was performed with a CT3 Texture Analyzer and Texture Pro CT 1.2 software (Brookfield AMETEK, Middleboro, MA, USA). Before testing, cheese samples were cut (20 × 20 × 20 mm) and kept at a temperature of 10 °C ± 1 °C. Compression test was performed using a plastic plunger type TA3/100 (25.4 mm diameter) and configured with the following parameters: distance 15 mm, measurement speed 5 mm s^−1, contact load 1.00 N, and hold time 1 s. The TPA test was applied to measure cheese hardness (N), adhesiveness (mJ), cohesiveness, and springiness (mm).

[2] = pH of fresh acid rennet cheese; type: physicochemical, goat
Method: as §1, with “The mixture was stirred and incubated at 28 °C until the pH reached 4.60 (±0.50) in a Cooled Incubator ILW 115 (POL-EKO Aparatura, Wodzisław Śląski, Poland).” left out
A pH meter (FiveEasy Mettler Toledo, Greifensee, Switzerland) and an electrode InLab® Solids Pro-ISM (Mettler Toledo, Greifensee, Switzerland) were used to determine the pH value in cheese.

[3] = Thermal stability of goat milk proteins during pasteurization (90 °C, 15 s); type: physicochemical; conditions: doses up to 20 mg Ca per 100 g of milk
Method: (§2) Doses of calcium (5, 10, 15, and 20 mg Ca 100 g^−1 milk), based on the calcium compound’s molecular weight, were added to 100 g of raw goat’s milk in the form of chloride, gluconate, lactate, and carbonate and tested to determine the pH value and thermal stability of milk. A control sample (0 mg Ca 100 g^−1 milk) was also prepared. The samples were heated in a water bath to 25 °C, mixed, and pasteurized (90 °C, 15 s). In the cooled (25 °C) samples of control milk and milk with calcium addition, the pH value was determined using a FiveEasy pH meter with an electrode InLab® Solids Pro-ISM (Mettler Toledo, Greifensee, Switzerland).

[4] = pH value of goat's milk after pasteurization with added calcium compound; type: physicochemical
Method: as §2

[5] = parameters: method as in doi:10.21608/jfds.2019.54698; conditions: cited from earlier work
[6] = parameters: method as in doi:10.1111/j.1471-0307.2010.00613.x; conditions: 30 mM calcium added before heating; cited from earlier work

- Cohesiveness ([1]; 15 mg Ca 100 g^−1 of milk): 0.30
- Springiness ([1]; 15 mg Ca 100 g^−1 of milk): 3.94 mm
- pH ([2]; cheese, 20 mg Ca 100 g^−1 of milk): 4.61
- thermal stability of milk during pasteurization [3]: not reduced
SMILES: O=C([O-])[C@H](O)[C@@H](O)[C@H](O)[C@H](O)CO.O=C([O-])[C@H](O)[C@@H](O)[C@H](O)[C@H](O)CO.[Ca+2] [Gluconate, calcium gluconate]

- thermal stability of milk during pasteurization [3]: not reduced
SMILES: CC(O)C(=O)[O-].CC(O)C(=O)[O-].[Ca+2] (stereo not drawn) [Lactate, calcium lactate]

SMILES: O=C([O-])[O-].[Ca+2] [Carbonate, calcium carbonate]
- increase of milk pH value compared to the control sample [4]: 0.11
- cheese pH value higher than the control cheese [2]: 0.19
- thermal stability of milk during pasteurization [3]: not reduced

- reduction of milk pH value compared to the control sample ([4]; greatest reduction): 0.23
- reduction of milk pH ([4]; lowest dose of calcium, 5 mg 100 g^−1): 0.17
- Springiness ([1]; 5 mg Ca 100 g^−1 of milk): 1.27 mm
- thermal stability of milk during pasteurization [3]: not reduced
SMILES: [Ca+2].[Cl-].[Cl-] [Chloride, Calcium chloride]
- pH of Karish cheese ([5]; 200 mg 100 mL^−1 added to milk): 4.69
- pH of Karish cheese ([5]; 300 mg 100 mL^−1 added to milk): 4.50
- reduction of pH of cow's milk [6]: up to 0.64
